Experiments:
[1] = target: T1, IRAK1 (Homo sapiens, UniProt P51617); experiment: RBC HotSpot Kinase Assay, IRAK1; format: biochemical; details: isolated kinase, 33P-ATP
T1 construct: purchased Reaction Biology (RBC), HotSpot kinase assay
Text: (§1) This assay uses the isolated kinase enzyme. This assay is very useful for determining competition of the inhibitor for ATP and/or substrates and for measuring the kinetics of enzyme inhibition. […] Unlike kinase binding assays that measure competition for ATP, the HotSpot Kinase Assay is a functional assay that measures catalytic activity; as such it measures relative functional potency regardless of the mechanism of enzyme inhibition. This assay uses the form of the various enzymes that are easiest to express, which may not necessarily be the form of the enzyme that exist in the cell. (Sometimes the carboxy terminus has been truncated to aid in expression, or, if it is a receptor kinase, the enzyme itself is isolated from the other parts of the receptor that are involved in regulating kinase activity.)
(§2) The reagent used was as follows: Base Reaction buffer; 20 mM Hepes (pH 7.5), 10 mM MgCl2, 1 mM EGTA, 0.01% Brij35, 0.02 mg/ml BSA, 0.1 mM Na3VO4, 2 mM DTT, 1% DMSO. Required cofactors were added individually to each kinase reaction.
(§3) The reaction procedure was as follows: • 1) Substrates were prepared in freshly prepared Reaction Buffer. • 2) Any required cofactors were delivered to the substrate solution above. • 3) Kinase was delivered into the substrate solution and gently mixed. • 4) Compounds were delivered in 100% DMSO into the kinase reaction mixture by Acoustic technology (Echo550; nanoliter range), followed by incubation for 20 min at room temp. • 5)^33P-ATP was delivered into the reaction mixture to initiate the reaction. • 6) The mixture was incubated for 2 hours at room temperature. • 7) Kinase activity was detected by P81 filter-binding method.

[2] = test system: MOLM14 D835Y cells; experiment: MOLM14 D835Y cell viability assay (Cell Titer Glo); format: cell-based; details: Homo sapiens, MOLM-14, 48 h
Description: Both cell lines have activated FLT3 receptors, each of which carry additional resistance mutations in the kinase domain (D835Y and F691L, respectively).
MOLM14 D835Y and MOLM14 F691L cells were grown in RPMI-1640 media supplemented with 20% fetal bovine serum (FBS). For viability/cytotoxicity assessments, cells were seeded into 1536-well white polystyrene tissue culture-treated Greiner plates using a Multidrop Combi dispenser (ThermoFisher), in final volume 5 μL of growth media per well, at a density of 1000 cells per well. After cell addition, 23 nL of test compound were transferred into individual wells (22 doses tested for each test compound, with a 1:2 dilution series starting at 10 μM) via a 1536 pin-tool. Bortezomib (final concentration 2.3 μM) was used as a positive control for cell cytotoxicity. Plates were incubated for 48 hours at standard incubator conditions covered by a stainless steel gasketed lid to prevent evaporation. 48 hours post compound addition, 3 μL of Cell Titer Glo (Promega) were added to each well and plates were incubated at room temperature for 15 minutes with the stainless-steel lid in place. Luminescence readings were taken using a Viewlux imager (PerkinElmer) with a 2 second exposure time per plate.

[3] = target: T2, FLT3 (Homo sapiens, UniProt P36888); experiment: RBC HotSpot Kinase Assay, FLT3; format: biochemical; parameters: purchased Reaction Biology (RBC), HotSpot kinase assay; details: isolated kinase, 33P-ATP
T2 sequence (P36888 27-993): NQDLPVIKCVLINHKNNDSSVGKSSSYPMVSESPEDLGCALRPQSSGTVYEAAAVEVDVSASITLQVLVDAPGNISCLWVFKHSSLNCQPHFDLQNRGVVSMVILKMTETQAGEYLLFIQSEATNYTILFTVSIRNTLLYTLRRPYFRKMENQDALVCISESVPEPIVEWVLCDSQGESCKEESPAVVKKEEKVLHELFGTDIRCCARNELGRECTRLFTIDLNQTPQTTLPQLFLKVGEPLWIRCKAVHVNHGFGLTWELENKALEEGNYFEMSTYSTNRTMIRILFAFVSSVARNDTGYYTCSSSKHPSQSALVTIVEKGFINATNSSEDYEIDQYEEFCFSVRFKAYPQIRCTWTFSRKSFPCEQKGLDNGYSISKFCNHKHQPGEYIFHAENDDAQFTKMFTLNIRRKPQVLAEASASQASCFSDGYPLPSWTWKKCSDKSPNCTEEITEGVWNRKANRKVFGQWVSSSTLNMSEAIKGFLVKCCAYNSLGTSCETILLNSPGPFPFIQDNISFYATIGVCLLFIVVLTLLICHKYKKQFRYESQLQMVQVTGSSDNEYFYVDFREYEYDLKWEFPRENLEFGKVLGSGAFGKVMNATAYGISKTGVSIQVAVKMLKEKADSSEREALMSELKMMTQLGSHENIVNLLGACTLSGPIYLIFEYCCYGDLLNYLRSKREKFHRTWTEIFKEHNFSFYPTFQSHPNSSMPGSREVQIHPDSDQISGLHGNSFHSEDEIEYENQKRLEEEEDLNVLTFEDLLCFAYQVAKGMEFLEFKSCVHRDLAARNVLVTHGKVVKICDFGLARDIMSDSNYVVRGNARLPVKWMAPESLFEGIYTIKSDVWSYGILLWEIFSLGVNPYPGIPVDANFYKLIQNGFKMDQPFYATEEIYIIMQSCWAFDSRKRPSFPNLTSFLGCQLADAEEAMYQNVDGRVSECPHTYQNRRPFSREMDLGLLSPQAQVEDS
Text: as §1, §2, §3

[4] = target: T3, IRAK4 (Homo sapiens, UniProt Q9NWZ3); experiment: RBC HotSpot Kinase Assay, IRAK4; format: biochemical; parameters: purchased Reaction Biology (RBC), HotSpot kinase assay; details: isolated kinase, 33P-ATP
T3 sequence (Q9NWZ3 1-460): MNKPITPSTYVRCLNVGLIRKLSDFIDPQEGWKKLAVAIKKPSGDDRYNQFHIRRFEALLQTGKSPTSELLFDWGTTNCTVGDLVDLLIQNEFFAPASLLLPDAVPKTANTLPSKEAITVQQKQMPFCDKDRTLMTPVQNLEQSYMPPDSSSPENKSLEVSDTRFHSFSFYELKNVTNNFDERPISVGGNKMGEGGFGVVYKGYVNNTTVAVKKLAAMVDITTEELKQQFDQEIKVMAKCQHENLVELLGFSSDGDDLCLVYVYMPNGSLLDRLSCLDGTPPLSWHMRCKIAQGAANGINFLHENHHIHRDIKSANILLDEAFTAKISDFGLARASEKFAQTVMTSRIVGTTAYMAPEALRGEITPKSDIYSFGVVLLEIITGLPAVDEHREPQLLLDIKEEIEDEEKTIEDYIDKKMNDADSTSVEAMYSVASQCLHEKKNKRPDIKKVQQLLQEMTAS
Text: as §1, §2, §3

T1 sequence (P51617 whole entry): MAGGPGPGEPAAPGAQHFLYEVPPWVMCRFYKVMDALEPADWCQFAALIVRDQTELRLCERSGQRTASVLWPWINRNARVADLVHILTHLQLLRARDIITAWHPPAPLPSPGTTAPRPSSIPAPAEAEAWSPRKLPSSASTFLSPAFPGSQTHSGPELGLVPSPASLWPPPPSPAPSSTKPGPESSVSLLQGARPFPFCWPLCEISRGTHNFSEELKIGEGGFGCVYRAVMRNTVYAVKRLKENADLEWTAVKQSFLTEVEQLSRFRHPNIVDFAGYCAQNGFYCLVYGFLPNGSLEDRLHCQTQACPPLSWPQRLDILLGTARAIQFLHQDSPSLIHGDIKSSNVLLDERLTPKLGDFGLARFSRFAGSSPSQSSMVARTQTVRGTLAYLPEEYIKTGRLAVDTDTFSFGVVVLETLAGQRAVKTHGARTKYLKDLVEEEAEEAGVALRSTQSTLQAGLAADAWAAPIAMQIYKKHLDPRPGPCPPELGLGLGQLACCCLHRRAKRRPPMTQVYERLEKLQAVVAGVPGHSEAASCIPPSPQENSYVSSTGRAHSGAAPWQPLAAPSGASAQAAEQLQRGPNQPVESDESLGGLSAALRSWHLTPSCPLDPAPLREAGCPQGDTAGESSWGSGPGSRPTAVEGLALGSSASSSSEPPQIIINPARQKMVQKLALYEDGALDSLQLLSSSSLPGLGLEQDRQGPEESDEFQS

| IC50 [1] [nM] | IC50 [2] [nM] | IC50 [3] [nM] | IC50 [4] [nM] | SMILES |
| --- | --- | --- | --- | --- |
| 301 | 15 | < 0.5 | 3 | C[C@H]1CNC[C@@H]1Nc1cccc(-c2cnc3cnc(C4(C(F)(F)F)CC4)cn23)n1 [Compound 11, N-((3R,4S)-4-methylpyrrolidin-3-yl)-6-(6-(1-(trifluoromethyl)cyclopropyl)imidazo[1,2-a]pyrazin-3-yl)pyridin-2-amine] |
| 3540 |  | 2 | 46 | CC1(C)CCN(c2cn3c(-c4cccc(N[C@H]5CNC[C@@H]5F)n4)cnc3cn2)C1=O [Compound 61, 1-(3-(6-(((3S,4S)-4-fluoropyrrolidin-3-yl)amino)pyridin-2-yl)imidazo[1,2-a]pyrazin-6-yl)-3,3-dimethylpyrrolidin-2-one] |
| 82 | 14 | < 0.5 | 1 | FC(F)c1cn2c(-c3cccc(N[C@@H]4CCNC4)n3)cnc2cn1 [Compound 18, (R)-6-(6-(difluoromethyl)imidazo[1,2-a]pyrazin-3-yl)-N-(pyrrolidin-3-yl)pyridin-2-amine] |
| 273 | 42 | 0.6 | 1 | C[C@H]1CNC[C@@H]1Nc1cccc(-c2cnc3cnc(C(C)(C)O)cn23)n1 [Compound 29, 2-(3-(6-(((3R,4S)-4-methylpyrrolidin-3-yl)amino)pyridin-2-yl)imidazo[1,2-a]pyrazin-6-yl)propan-2-ol] |
| 154 |  | < 0.5 | 7 | c1cc(N[C@@H]2CCCNC2)nc(-c2cnc3cnc(-c4cnn5ccccc45)cn23)c1 [Compound 47] |
| 966 |  | < 0.5 | 2 | c1cc(N[C@H]2CNCC23CC3)nc(-c2cnc3cnccn23)c1 [Compound 71, (R)-N-(6-(imidazo[1,2-a]pyrazin-3-yl)pyridin-2-yl)-5-azaspiro[2.4]heptan-7-amine] |
| 2290 |  | < 0.5 | 5 | CC(C)(O)Cn1cc(-c2cn3c(-c4cccc(N[C@H]5CNC[C@@H]5F)n4)cnc3cn2)cn1 [Compound 54, 1-(4-(3-(6-(((3S,4S)-4-fluoropyrrolidin-3-yl)amino)pyridin-2-yl)imidazo[1,2-a]pyrazin-6-yl)-1H-pyrazol-1-yl)-2-methylpropan-2-ol] |
| 622 |  | < 0.5 | 2 | C[C@H]1CNC[C@@H]1Nc1cccc(-c2cnc3cnccn23)n1 [Compound 73, 6-(imidazo[1,2-a]pyrazin-3-yl)-N-((3R,4S)-4-methylpyrrolidin-3-yl)pyridin-2-amine] |
| 3640 |  | < 0.5 | 8 | CC(C)(O)Cn1cc(-c2cn3c(-c4cccc(N[C@@H]5CCCNC5)n4)cnc3cn2)cn1 [Compound 46, (R)-2-methyl-1-(4-(3-(6-(piperidin-3-ylamino)pyridin-2-yl)imidazo[1,2-a]pyrazin-6-yl)-1H-pyrazol-1-yl)propan-2-ol] |
| 4280 |  | < 0.5 | 37 | FC(F)n1cc(-c2cn3c(-c4cccc(N[C@@H]5CCCNC5)n4)cnc3cn2)cn1 [Compound 44, (R)-6-(6-(1-(difluoromethyl)-1H-pyrazol-4-yl)imidazo[1,2-a]pyrazin-3-yl)-N-(piperidin-3-yl)pyridin-2-amine] |
| 736 |  | 3 | 1020 | C[C@@H]1CNC[C@H](Nc2cccc(-c3cnc4cnc(C5(C(F)(F)F)CC5)cn34)n2)C1 [Compound 15, N-((3R,5S)-5-methylpiperidin-3-yl)-6-(6-(1-(trifluoromethyl)cyclopropyl)imidazo[1,2-a]pyrazin-3-yl)pyridin-2-amine] |
| 185 |  | < 0.5 | 7 | FC(F)c1cn2c(-c3cccc(N[C@H]4CNCC4(F)F)n3)cnc2cn1 [Compound 23, 6-(6-(difluoromethyl)imidazo[1,2-a]pyrazin-3-yl)-N-(4,4-difluoropyrrolidin-3-yl)pyridin-2-amine] |
| 6020 |  | 1 | 4 | OC1(C(F)(F)F)CCN(c2cn3c(-c4cccc(N[C@H]5CNC[C@@H]5F)n4)cnc3cn2)C1 (stereo partly drawn) [Compound 66, 1-(3-(6-(((3S,4S)-4-fluoropyrrolidin-3-yl)amino)pyridin-2-yl)imidazo[1,2-a]pyrazin-6-yl)-3-(trifluoromethyl)pyrrolidin-3-ol] |
| 696 |  | < 0.5 | 20 | F[C@H]1CCNC[C@@H]1Nc1cccc(-c2cnc3cnccn23)n1 [Compound 70, N-((3S,4S)-4-fluoropiperidin-3-yl)-6-(imidazo[1,2-a]pyrazin-3-yl)pyridin-2-amine] |
| 926 |  | 0.6 | 86 | CC1(c2cn3c(-c4cccc(N[C@H]5CCNC[C@@H]5F)n4)cnc3cn2)CC1 [Compound 6, N-((3S,4S)-3-fluoropiperidin-4-yl)-6-(6-(1-methylcyclopropyl)imidazo[1,2-a]pyrazin-3-yl)pyridin-2-amine] |
| 8190 |  | 0.7 | 4 | F[C@H]1CNC[C@@H]1Nc1cccc(-c2cnc3cnc(N4CCC(F)(F)C4)cn23)n1 [Compound 67, 6-(6-(3,3-difluoropyrrolidin-1-yl)imidazo[1,2-a]pyrazin-3-yl)-N-((3S,4S)-4-fluoropyrrolidin-3-yl)pyridin-2-amine] |
| 301 |  | < 0.5 | 8 | FC(F)(F)COc1cn2c(-c3cccc(N[C@H]4CNC[C@@H]4C(F)(F)F)n3)cnc2cn1 [Compound 39, 6-(6-(2,2,2-trifluoroethoxy)imidazo[1,2-a]pyrazin-3-yl)-N-((3R,4S)-4-(trifluoromethyl)pyrrolidin-3-yl)pyridin-2-amine] |

— patent US12612410B2 (CHILDREN'S HOSPITAL MEDICAL CENTER, priority 2020, dated 2026)
